Test results: article PMC6910110, “Icaritin, an inhibitor of beta-site amyloid cleaving enzyme-1, inhibits secretion of amyloid precursor protein in APP-PS1-HEK293 cells by impeding the amyloidogenic pathway” (PeerJ, 2019)

Molecular target: T1, beta-site amyloid cleaving enzyme (BACE)1 (Homo sapiens, UniProt P56817)
T1 construct: gene BACE1
Test: BACE1 FRET assay kit (Panvera), Swedish-mutant peptide substrate
Assay type: biochemical

T1 sequence (P56817 46-457): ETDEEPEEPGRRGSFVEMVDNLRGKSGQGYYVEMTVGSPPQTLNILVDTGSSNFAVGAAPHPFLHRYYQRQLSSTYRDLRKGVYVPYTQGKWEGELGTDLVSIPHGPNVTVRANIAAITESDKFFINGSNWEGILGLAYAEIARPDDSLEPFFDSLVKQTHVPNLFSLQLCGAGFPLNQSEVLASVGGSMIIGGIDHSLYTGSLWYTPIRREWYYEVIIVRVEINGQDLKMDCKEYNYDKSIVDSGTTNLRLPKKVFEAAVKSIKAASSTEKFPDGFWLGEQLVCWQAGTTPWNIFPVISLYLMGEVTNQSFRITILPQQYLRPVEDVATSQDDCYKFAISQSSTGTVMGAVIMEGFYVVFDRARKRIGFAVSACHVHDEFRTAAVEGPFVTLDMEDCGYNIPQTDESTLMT

IC50: 5.7 ± 1.09 µM
Compound: COc1ccc(-c2oc3c(CC=C(C)C)c(O)cc(O)c3c(=O)c2O)cc1 [ICT, Icaritin]
